Test results from ChEMBL document CHEMBL4834431, “Design of Dimeric Bile Acid Derivatives as Potent and Selective Human NTCP Inhibitors” (J Med Chem, 2021).
Active and inactive are the calls of the source. The calls are words filed in the database; no cut-off is given here.

Tests used:
[1] = Oral bioavailability in C57B/L mouse by LC/MS analysis; type: ADME, organism-based; conditions: in vivo
[2] = system: Mus musculus; test: Effect on human NTCP knock-in C57B/L mouse assessed as increase in total bile acid level at 50 mg/kg, ip administered twice daily for 3 days; type: functional, organism-based; conditions: time 3.0 day
[3] = Half life in ip dosed C57B/L mouse by LC/MS analysis; type: ADME, organism-based; conditions: in vivo
[4] = Stability in mouse liver microsomes assessed as half life at 1 uM preincubated for 5 mins followed by NADPH addition and measured upto 60 mins by LC-MS analysis; type: ADME, Microsome; conditions: time 65 min
[5] = biological target: T1, Hepatic sodium/bile acid cotransporter (Homo sapiens, UniProt Q14973); test: Inhibition of human NTCP-mediated [3H]-TCA uptake expressed in human HepG2 cells in presence of 20 % FBS; type: cell-based
T1 sequence (Q14973 whole entry): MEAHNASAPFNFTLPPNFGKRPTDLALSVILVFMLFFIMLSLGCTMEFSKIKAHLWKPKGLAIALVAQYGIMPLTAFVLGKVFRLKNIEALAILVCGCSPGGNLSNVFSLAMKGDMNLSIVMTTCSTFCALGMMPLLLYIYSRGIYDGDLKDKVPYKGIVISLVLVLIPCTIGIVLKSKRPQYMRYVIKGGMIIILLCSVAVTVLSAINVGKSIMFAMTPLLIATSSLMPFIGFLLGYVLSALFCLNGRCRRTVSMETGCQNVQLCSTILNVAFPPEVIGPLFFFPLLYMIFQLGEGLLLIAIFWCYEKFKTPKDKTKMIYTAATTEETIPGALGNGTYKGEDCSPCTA

[6] = system: Hepatitis B virus; test: Antiviral activity against HBV infected in human HepG2-NTCP cells assessed as reduction in HBeAg secretion incubated for 24 hrs followed replacement with fresh medium and measured at day 5 post infection by ELISA; type: functional, organism-based
[7] = Toxicity in C57B/L mouse assessed as effect on body weight at 50 mg/kg, ip administered twice daily for 3 days; type: organism-based; conditions: in vivo, 72 h, time 3 day
[8] = biological target: T1, Hepatic sodium/bile acid cotransporter; test: Inhibition of human NTCP-mediated [3H]-TCA uptake expressed in human HepG2 cells in presence of 50 % FBS; type: cell-based
[9] = Stability in human liver microsomes assessed as intrinsic clearance at 1 uM preincubated for 5 mins followed by NADPH addition and measured upto 60 mins by LC-MS analysis; type: ADME, Microsome; conditions: time 65 min, read-out: CLH
[10] = Bioavailability in ip dosed C57B/L mouse by LC/MS analysis; type: ADME, organism-based; conditions: in vivo
[11] = biological target: T1, Hepatic sodium/bile acid cotransporter; test: Inhibition of human NTCP-mediated [3H]-TCA uptake expressed in human HepG2 cells in presence of human serum; type: cell-based
[12] = system: HepG2; test: Inhibition of human NTCP-mediated [3H]-TCA uptake expressed in human HepG2 cells in presence of bovine serum; type: cell-based; conditions: Bos taurus
[13] = Stability in mouse liver microsomes assessed as intrinsic clearance at 1 uM preincubated for 5 mins followed by NADPH addition and measured upto 60 mins by LC-MS analysis; type: ADME, Microsome; conditions: time 65 min, read-out: CLH
[14] = biological target: T2, Hepatic sodium/bile acid cotransporter (Mus musculus, UniProt O08705); test: Inhibition of mouse NTCP-mediated [3H]-TCA uptake expressed in human HepG2 cells in presence of mouse serum; type: cell-based
T2 sequence (O08705 whole entry): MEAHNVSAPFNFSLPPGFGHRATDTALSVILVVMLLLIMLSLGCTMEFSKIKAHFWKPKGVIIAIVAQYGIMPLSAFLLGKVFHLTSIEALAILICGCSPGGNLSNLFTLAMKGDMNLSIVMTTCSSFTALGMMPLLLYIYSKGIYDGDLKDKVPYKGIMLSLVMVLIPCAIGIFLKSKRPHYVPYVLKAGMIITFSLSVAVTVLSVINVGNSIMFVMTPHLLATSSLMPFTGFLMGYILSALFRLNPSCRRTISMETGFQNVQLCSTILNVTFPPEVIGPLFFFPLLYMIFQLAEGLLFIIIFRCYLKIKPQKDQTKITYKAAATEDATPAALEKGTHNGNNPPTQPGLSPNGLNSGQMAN

[15] = Plasma protein binding in mouse; type: ADME, cell-free; conditions: read-out: PPB
[16] = Stability in human liver microsomes assessed as half life at 1 uM preincubated for 5 mins followed by NADPH addition and measured upto 60 mins by LC-MS analysis; type: ADME, Microsome; conditions: time 65 min
[17] = system: Mus musculus; test: Effect on wild-type C57B/L mouse assessed as increase in total bile acid level at 50 mg/kg, ip administered twice daily for 3 days; type: functional, organism-based; conditions: time 3.0 day
[18] = Plasma protein binding in human; type: ADME, cell-free; conditions: read-out: PPB
[19] = Toxicity in C57B/L mouse assessed as effect on ALT level at 50 mg/kg, ip administered twice daily for 3 days; type: organism-based; conditions: in vivo, 72 h, time 3 day
[20] = biological target: T1, Hepatic sodium/bile acid cotransporter; test: Inhibition of human NTCP-mediated [3H]-TCA uptake expressed in human HepG2 cells pretreated for 2 hrs followed by [3H]-TCA addition in absence of FBS; type: cell-based
[21] = biological target: T2, Hepatic sodium/bile acid cotransporter; test: Inhibition of mouse NTCP-mediated [3H]-TCA uptake expressed in human HepG2 cells in presence of human serum; type: cell-based

C[C@@H]1CCC(=O)NC(C(=O)NCCS(=O)(=O)O)CNC(=O)CC[C@@H](C)[C@H]2CC[C@H]3[C@@H]4[C@@H](O)C[C@@H]5C[C@@H](CC[C@]5(C)[C@H]4CC[C@]23C)n2cc(nn2)CO[C@@H]2CC[C@@]3(C)[C@@H](C2)C[C@H](O)[C@@H]2[C@@H]3CC[C@]3(C)[C@@H]1CC[C@@H]23 (stereo partly specified)
bioavailability [1]: 1.3% | Activity [2]: Active | half-life [3]: 96 min | half-life at 1 µM [4]: 55.8 min | IC50 [5]: 54 nM | IC50 [6]: 178 nM | Activity [7]: Non-Toxic | IC50 [8]: 81.5 nM | microsomal CLint at 1 µM [9]: 6.1 µL/min/mg | bioavailability [10]: 32% | inhibition (INH) [11]: Active | inhibition [12]: Active | microsomal CLint at 1 µM [13]: 12 µL/min/mg | inhibition (INH) [14]: Not Active | fraction unbound [15]: 0.01 | half-life at 1 µM [16]: 114 min | Activity [17]: inactive | fraction unbound [18]: 0.01 | Activity [19]: Non-Toxic | IC50 [20]: 23.5 nM | inhibition (INH) [21]: Not Active
